The source of these data is ChEMBL document CHEMBL3792289, “Design, synthesis and biological evaluation of bisabolangelone oxime derivatives as potassium-competitive acid blockers (P-CABs)” (Bioorg Med Chem Lett, 2016).

One assay is described as follows: Inhibition of pig gastric H+/K+-ATPase in stomach ion leaky membrane vesicle assessed as reduction in monophosphate production after 30 mins by microplate reader analysis in presence of valinomycin. Format: cell membranes, Sus scrofa.
Take `CCCCO/N=C1\C[C@H](C)C[C@@H]2O/C(=C\CC(C)C)[C@](C)(O)[C@H]12`: the pIC50 (in general, the IC50 on a negative log10 scale, so that one unit is a factor of ten) is recorded as 5.94.

In the case of `CCOC(=O)CO/N=C1\C[C@H](C)C[C@@H]2O/C(=C\CC(C)C)[C@](C)(O)[C@H]12`, the pIC50 turned out to be 6.07.

Consider `CC(C)C/C=C1\O[C@H]2C[C@@H](C)C/C(=N\OCc3ccccc3)[C@H]2[C@@]1(C)O`, for which the pIC50 turned out to be 6.25.

As for `CC(C)C/C=C1\O[C@H]2C[C@@H](C)C/C(=N\OC(=O)Nc3ccccc3)[C@H]2[C@@]1(C)O`, the pIC50 worked out at 6.

Take `C#CCO/N=C1\C[C@H](C)C[C@@H]2O/C(=C\CC(C)C)[C@](C)(O)[C@H]12`: the pIC50 is on record as 6.36.

With `CC(C)CCC1O[C@H]2C[C@@H](C)C/C(=N\O)[C@H]2[C@@]1(C)O` (some centres undefined), the pIC50 was determined as 5.3.

Take `CC(C)C/C=C1\O[C@H]2C[C@@H](C)C/C(=N\O)[C@H]2[C@@]1(C)O`: the negative logarithm of the IC50 (pIC50) was found to be 5.54.

Consider `Cc1nc(Nc2ccc(F)cc2)nc(N2CCc3ccccc3C2C)c1C` (centres undefined) [REVAPRAZAN], for which the half-inhibitory concentration (IC50) – broadly, the concentration at which inhibition is half-maximal – worked out at 0.95 µM.

The next assay is described as follows: Inhibition of gastric H+/K+-ATPase in Kunming mouse stomach parietal cells. It is filed as tissue-based.
As for `CC(C)C/C=C1\O[C@H]2C[C@@H](C)CC(=O)[C@H]2[C@@]1(C)O`, half-maximal inhibition (IC50) required 23.2 µM.
